Results: patent US20180085371A1, “COMBINATION OF PANOBINOSTAT AND RUXOLITINIB IN THE TREATMENT OF CANCER SUCH AS A MYELOPROLIFERATIVE NEOPLASM” (Novartis AG, priority 2011, published 2018)

What was measured:
[1] = test system: Ba/F3 EpoR JAK2V617F-luc clone 8 cells; assay: Ba/F3 EpoR JAK2V617F-luc cells-driven leukemic disease mouse model, Xenogen bioluminescence; type: in vivo; details: for T/C last day (%): (treated/control)·100; for Fractional change in Biolux: biolux last day/first day, mean
Method: A study is conducted to test the efficacy of the combination of Compound A and Compound B in Scid-beige mice injected i.v. (tail vein) with 1·10^6 Ba/F3 EpoR JAK2V617F-luc clone 8 cells.
• 80 Scid-beige female mice, 18-22 g (8 groups of 7 mice, 24 excluded at time of randomization) • Cells: Ba/F3 EpoR JAK2V617F-luc clone 8 cells. • Whole body Xenogen imaging was performed on days 4, 7, 9 and 11 after cell injection. Randomization of animals into treatment groups was based on bioluminescence (BioL) on day 4 after cell injection. • The mouse model and the protocol is described by Baffert et al., Mol. Cancer Ther; 9(7), 1945, July 2010. Animal and Cell line: • Cell line: Ba/F3EpoR JAK2V617F-luc clone 8 • Gene: JAK2V617F • Cell-Nr./Injection site: 1×10e6 cells in 200 ul/tail i.v. injection • Species: mouse • Strain: CB17/C.B-Igh-l^b/GbmsTac-Prkdc^scid-lyst^bgN7, Taconic farms (complete name Taconic) • Gender: female • Age: […] • Number: 80 mice
Ba/F3 EpoR JAK2V617F-luc cells are grown in RPMI1640 supplemented with 10% FCS, 1% Glutamine, Puromycin (1 ug/mL) and Hygromycin (100 ug/mL). Cells are splited every three days (1:50) not more than two weeks before experiment. The day prior the injection, cells are grown without any antibiotics (to avoid any potential delay in cell growth in vivo).
The day of injection the cells are harvested and resuspended in HBSS buffer (10e6 cells in 200 ul). Cells are injected in tail vein using 27G tuberculin syringe. […]
Bioluminescence are recorded using the Xenogen Camera (non invasive IVIS® Imaging system, Caliper) on day 4, day 7 and 10 post cell injection under isofluran anesthesia (3-5% vol isofluran, 0.8 L/min air flow). Animals are injected i.p. with D-luciferin (Xenogen corporation, ref XR-1001), at 150 mg/kg (10 ml/kg, Nacl). Anesthetized mice are then placed in the imaging chamber for imaging 15 minutes after the luciferin injection.
Animals are randomized on day 4 and treatment started for at least 6 days based on well being of vehicle treated animals.

[2] = PK analysis 2 hours post-therapy, Example A (blood and tissue levels); type: in vivo, mouse; details: mean; for BM level 2 hr post-therapy: BM levels to be taken with caution
Method: 2 hours after last dose for Compound A;
2 hours after last dose for Compound B; • Spleen weight is recorded at sacrifice. • Samples collected and snap frozen in liquid nitrogen and then kept at −80° C. until analysis: • spleen, BM, blood and liver for PK analysis • spleen for PD marker analysis (p-STATS (Compound A) and protein acetylation (Compound B)), • sternum for PD marker analysis (p-STATS (Compound A).
Concentrations of Compound A and Compound B in plasma and tissues were determined simultaneously by an UPLC/MS-MS assay. Tissues were homogenized in an equal volume of HPLC-Water (Water for chromatography, Merck) using the Fast Prep®-24 system (M.P. Biomedicals, Irvine, Calif., USA). Following addition of 25 μl of internal standard mixture (1 μg/ml) to analytical aliquots (25 μl) of blood or tissues homogenate, the proteins were precipitated by the addition of 200 μl acetonitrile. The supernatant were transferred in a fresh vial. After evaporation to dryness the samples were re-dissolved in 60 μl acetonitrile/water (1/1 v/v). An aliquot (5 μl) of this solution was separated on a ACQUITY UPLC BEH C18 column (Waters™ 1.7 μm particle size, 2.1×50 mm) with a mobile phase consisting of a mixture of 0.1% formic acid in water (solvent A) and 0.1% formic acid in acetonitrile (solvent B). Gradient programming was used with a flow rate of 600 μl/min. After equilibration with 95% solvent A, 5 μl of sample was injected. Following a latency period of 0.25 min., the sample was eluted with a linear gradient of 5-100% solvent B over a period of 0.65 minutes followed by a 0.35 min. hold. The column was prepared for the next sample by re-equilibrating over 0.25 min. to the starting conditions. The column eluent was directly introduced into the ion source of the triple quadrupole mass spectrometer TQDTM (Waters Corporation, Milford, Mass., USA) controlled by Masslynx™ 4.1 software. Electrospray positive ionization (ESI+) multiple reaction monitoring was used for the MS/MS detection of the analyte. Precursor to product ion transition of 307.0→m/z 186.0 for Compound A was used. Simultaneously precursor to product ion transition of 350.1→m/z 142.9 for Compound B was recorded. The limit of quantification (LOQ) for both compounds was set to 9 ng/ml and 9 ng/g for plasma and tissues, respectively (CV and overall bias less than 30%). Regression analysis and further calculations were performed using QuanLynx™ 4.1 (Micromass) and Excel™ 2007 (Microsoft). Concentrations of unknown samples were back-calculated based on the peak area ratios of analyte/IS from a calibration curve constructed using calibration samples spiked in blank blood or tissue obtained from animals treated with vehicle.

[3] = test system: JAK2V617F bone marrow transduced cells; assay: JAK2V617F bone marrow transplant model of polycythemia vera-like disease (spleen weight, blood counts, GFP-positive cells)
Method: Briefly, Balb/c donor mice (6-8 weeks, Charles River, males or females) were treated 5 days prior BM transplant with 5-fluorouracil (150 mg/kg, i.p., Sigma-Aldrich, cat #F6627). Bone marrow cells from donor mice were harvested by flushing femurs and tibias. After red cell lysis (StemCellTechnologies, Grenoble, France, cat #07800), nucleated cells were cultured for 24 hours in transplant medium (RPMI+10% FCS+25 ng/ml IL3 (R&D Systems, Abington, UK, cat #403-ML), 25 ng/ml IL6 (R&D Systems cat #406-ML), and 50 ng/ml Stem Cell Factor (SC F, Bioconcept, Allschwill, Switzerland, cat #D-63120). The next day, cells were plated at 2×10^6cells/ml/well in 6 well plates in the presence of 1 mL of supernatant containing virions from 293T transfected with 10 μg of p-MSCV-JAK2V617F-IRES-GFP vector (modification of original vector p-MSCV vector purchased from Clontech) and 10 μg of pCL-ECO vector (Imgenex, cat #10045P). After two spin-infections (2500 rpm for 90 min at 32° C., Multifuge 1S-R, Heraeus) unselected infected BM cells were resuspended in Hank's balanced salt solution (HBSS) before cell injection (1-3×10^6 depending on infection rate) into the tail vein of lethally irradiated Balb/c female recipient mice (total 9 Gy or 7 Gy) given as two 4.5 or 3.5 Gy doses 4 hours apart) using a BIOBEAM 8000, gamma irradiator (BEBIG GmbH, Germany).
Animals were monitored daily and sacrificed in case of major signs of distress (excessive body weight loss over more than 2 consecutive days without improvement, combined with lethargy and piloerection).
Blood was drawn from the tail vein or at sacrifice from the vena cava with a 20 G needle under isoflurane anesthesia (terminal procedure) and analyzed using an automated complete and differential blood cell counter (capillary mode using dilution 1:5 on a Sysmex blood analyzer, XT2000iV, Sysmex Digitana AG, Norderstedt, Germany). Spleens were weighed to evaluate splenomegaly. Blood, spleens, sterna, and livers were collected for pharmacokinetic, pharmacodynamic.
Ten microliters of whole blood were used to detect circulating GFP-positive cells. Briefly, blood was distributed into a 96-well round bottom plate (Costar, cat #3795) and red blood cells (RBC) were lysed with 200 μl of red blood cell lysis buffer (Sigma, cat #R-7757). After an incubation period of 7 min. in the dark on a plate agitator, cells were centrifuged (5 min., 300 g) and the supernatant discarded by inversion of the plate. After 3 washing steps in FACS buffer (phosphate buffered saline (D-PBS), 3% FBS and 0.02% sodium azide), nucleated cells were resuspended in 200 μl of cold FACS buffer and processed for GFP detection using a LSRII flow cytometer (BD Biosciences, Heidelberg, Germany).
Mice were randomized on day 27 post BMT based on Hct values (67% in average in this experiment, N=9/group) and treated with Compound B (8 mg/kg, 3×/week MWF, i.p.) and Compound A (60 mg/kg, q12h, p.o.) as single agents or combined.

[4] = Compound A 60 mg/kg po twice a day
[5] = treatment Compound A 60 mg/kg + Compound B 4 mg/kg
[6] = treatment Compound A 60 mg/kg + Compound B 8 mg/kg
[7] = treatment Compound A 60 mg/kg + Compound B 12 mg/kg
[8] = sacrifice day after 21 days, Compound B 8 mg/kg ip, Compound A 60 mg/kg po q12h, or Combo

Row | SMILES | Blood level 2 hr post-therapy [2, 5] [µM] | Liver level 2 hr post-therapy [2, 5] | Spleen level 2 hr post-therapy [2, 5] | BM level 2 hr post-therapy [2, 5] | Blood level 2 hr post-therapy [2, 6] [µM] | Liver level 2 hr post-therapy [2, 6] [nmol/g] | Spleen level 2 hr post-therapy [2, 6] [nmol/g] | BM level 2 hr post-therapy [2, 6] [nmol/g] | Blood level 2 hr post-therapy [2, 7] [µM] | Liver level 2 hr post-therapy [2, 7] [nmol/g] | Spleen level 2 hr post-therapy [2, 7] [nmol/g] | BM level 2 hr post-therapy [2, 7] [nmol/g] | Hct (%) (mean ± SEM) [3, 8] | Retic counts (×10^12/L) (mean ± SEM) [3, 8] | further results
1 | N#CC[C@H](C1CCCC1)n1cc(-c2ncnc3[nH]ccc23)cn1 [Compound A, (R)-3-(4-(7H-pyrrolo[2,3-d]pyrimidin-4-yl)-1H-pyrazol-1-yl)-3-cyclopentylpropanenitrile] | 2.78 | 3.49 + nmol/g | 1.15 + nmol/g | 2.59 + nmol/g | 2.23 | 2.91 | 1.02 | 1.92 | 2.72 | 3.87 | 1.61 | 2.29 | 59.4 | 0.42 ×10^12/L | T/C last day (%) [1, 4]: 40%; Fractional change in Biolux [1, 4]: 717; Blood level 2 hr post-therapy ([2]; treatment Compound A 60 mg/kg): 1.96 µM; Liver level 2 hr post-therapy ([2]; treatment Compound A 60 mg/kg): 4.54 nmol/g; Spleen level 2 hr post-therapy ([2]; treatment Compound A 60 mg/kg): 1.28 nmol/g; BM level 2 hr post-therapy ([2]; treatment Compound A 60 mg/kg): 1.40 + nmol/g; PLT (×10^9/L) (mean ± SEM) [3, 8]: 695.9 ×10^9/L; WBC (×10^9/L) (mean ± SEM) ([3]; sacrifice day after 21 days, Compound B 8 mg/kg ip, Compound A 60 mg/kg po q12h, or Combo, all values): 22.2 ×10^9/L; GFP positive circulating cells (%) ([3]; sacrifice day after 21 days, allele burden surrogate, Compound B 8 mg/kg ip, Compound A 60 mg/kg po q12h, or Combo): 34.0%; WBC (×10^9/L), mean without outlier ([3]; sacrifice day, Compound A 60 mg/kg po q12h, value between brackets, 1 outlier excluded): (7.46 ×10^9/L
2 | Cc1[nH]c2ccccc2c1CCNCc1ccc(/C=C/C(=O)NO)cc1 [Compound B, N-hydroxy-3-[4-[[[2-(2-methyl-1H-indol-3-yl)-ethyl]-amino]methyl]phenyl]-2E-2-propenamide] | 0.02 | 0.30 + nmol/g | 2.80 + nmol/g | 6.15 + nmol/g | 0.03 | 0.32 | 3.02 | 8.43 | 0.02 | 0.71 | 4.51 | 9.81 | 52.2 | 0.24 ×10^12/L | Fractional change in Biolux ([1]; Compound B 4 mg/kg ip M/W/F (free-base equivalent)): 481; T/C last day (%) ([1]; Compound B 4 mg/kg ip M/W/F): 27%; T/C last day (%) ([1]; Compound B 8 mg/kg ip M/W/F): 20%; Fractional change in Biolux ([1]; Compound B 8 mg/kg ip M/W/F): 351; T/C last day (%) ([1]; Compound B 12 mg/kg ip M/W/F): 11%; Fractional change in Biolux ([1]; Compound B 12 mg/kg ip M/W/F): 204; Blood level 2 hr post-therapy ([2]; treatment Compound B 4 mg/kg): BLQ; Liver level 2 hr post-therapy ([2]; treatment Compound B 4 mg/kg): 0.18 nmol/g; Spleen level 2 hr post-therapy ([2]; treatment Compound B 4 mg/kg): 1.40 nmol/g; BM level 2 hr post-therapy ([2]; treatment Compound B 4 mg/kg): 3.34 nmol/g; Blood level 2 hr post-therapy ([2]; treatment Compound B 8 mg/kg): BLQ; Liver level 2 hr post-therapy ([2]; treatment Compound B 8 mg/kg): 0.25 nmol/g; Spleen level 2 hr post-therapy ([2]; treatment Compound B 8 mg/kg): 2.07 nmol/g; BM level 2 hr post-therapy ([2]; treatment Compound B 8 mg/kg): 3.17 nmol/g; Blood level 2 hr post-therapy ([2]; treatment Compound B 12 mg/kg): BLQ; Liver level 2 hr post-therapy ([2]; treatment Compound B 12 mg/kg): 0.63 nmol/g; Spleen level 2 hr post-therapy ([2]; treatment Compound B 12 mg/kg): 3.64 nmol/g; BM level 2 hr post-therapy ([2]; treatment Compound B 12 mg/kg): 7.32 nmol/g
